In US8592383B2, “Cycloalkyl-fused tetrahydroquinolines as CRTH2 receptor modulators” (Merck Sharp & Dohme Corp., priority 2011, dated 2013):

What follows are molecules tested against T1, hCRTH2 (Homo sapiens, UniProt Q9Y5Y4) (assay: biochemical). Details: Ki, Radioligand Binding Assay A; 3.0 nM [3H]PGD2, HEK-hCRTH2 membranes.
T1 sequence (Q9Y5Y4 1-395): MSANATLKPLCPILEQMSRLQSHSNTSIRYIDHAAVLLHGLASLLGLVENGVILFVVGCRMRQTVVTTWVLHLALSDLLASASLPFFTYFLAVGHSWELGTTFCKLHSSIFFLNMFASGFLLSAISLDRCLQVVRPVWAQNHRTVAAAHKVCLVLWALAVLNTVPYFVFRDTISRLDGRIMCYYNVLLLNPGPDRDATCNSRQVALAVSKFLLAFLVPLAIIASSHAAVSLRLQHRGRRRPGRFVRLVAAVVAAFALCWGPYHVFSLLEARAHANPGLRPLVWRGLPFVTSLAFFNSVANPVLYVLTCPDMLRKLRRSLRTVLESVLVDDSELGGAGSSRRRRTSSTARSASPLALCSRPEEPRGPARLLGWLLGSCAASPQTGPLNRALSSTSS
Procedure: Competing ligands were diluted in dimethylsulfoxide (Me2SO) that was kept constant at 1% (v/v) of the final incubation volume. The reaction was initiated by the addition of 8-20 g of membrane protein prepared from a human embryonic kidney (HEK)-hCRTH2 cell line. Total and non-specific binding were determined in the absence and the presence of 10 μM PGD2, respectively. Under these conditions, specific binding (total minus non-specific) of the radioligand to the receptor reached equilibrium within 50 min and was stable up to 180 min. The reaction was routinely conducted for 60 min at room temperature and terminated by rapid filtration through prewetted (0.3% polyethyleneimine) 96-well printed Filtermate™ (Wallac) using a Tomtec® harvester (Hamden, Conn.). After washing with cold buffer, the filter was dried for 2 minutes in microwave, and Meltilex Scintillator sheet (Wallac) was melted on for 2 min.

| SMILES | Ki [nM] |
| --- | --- |
| Cc1ccc2c(c1)C(N(C(=O)CCC(=O)O)C1CC1)C1CCCC1N2C(=O)c1ccc(OC(F)(F)F)cc1 (single isomer, unassigned) [compound 51, 4-[Cyclopropyl[cis,cis-2,3,3a,4,9,9a-hexahydro-7-methyl-4-[4-(trifluoromethoxy)benzoyl]-1H-cyclopenta[b]quinolin-9-yl]amino]-4-oxobutanoic acid] | 6.9 |
| O=C(O)CCCN(C1CC1)C1c2ccccc2N(C(=O)OCc2ccccc2)C2CCCC21 (single isomer, unassigned) [compound 60, 4-(phenylmethyl) cis, cis-[(3-carboxypropyl)cyclopropylamino]-1,2,3,3a,9,9a-hexahydro-4H-cyclopenta[b]quinoline-4-carboxylate] | 21.2 |
| CCN(C(=O)CCC(=O)O)C1c2ccccc2N(C(=O)C2CC2c2ccccc2)C2CCCC12 (single isomer, unassigned) [compound 69, 4-[ethyl[cis, cis-2,3,3a,4,9,9a-hexahydro-4-[(2-phenyl-1-cyclopropyl)carbonyl]-1H-cyclopenta[b]quinolin-9-yl]amino]-4-oxobutanoic acid] | 4.97 |
| CCN(C(=O)CCC(=O)O)C1c2ccccc2N(C(=O)OCc2ccc(F)c(F)c2)C2CCCC12 (single isomer, unassigned) [compound 72, 4-[(3,4-difluorophenyl)methyl] cis, cis-[(3-carboxy-1-oxopropyl)ethylamino]-1,2,3,3a,9,9a-hexahydro-4H-cyclopenta[b]quinoline-4-carboxylate] | 15.7 |
| O=C(O)CCC(=O)N(C1CC1)C1c2cc(F)ccc2N(C(=O)c2ccc(OC(F)(F)F)cc2)C2CCCC21 (single isomer, unassigned) [compound 134, 4-[cyclopropyl[cis, cis-7-fluoro-2,3,3a,4,9,9a-hexahydro-4-[4-(trifluoromethoxy)benzoyl]-1H-cyclopenta[b]quinolin-9-yl]amino]-4-oxobutanoic acid] | 236 |
| O=C(O)CCC(=O)N(C1CC1)[C@H]1c2cc(F)ccc2N(C(=O)c2ccc(OC(F)(F)F)cc2)[C@H]2CCC[C@H]21 [compound 17, 4-(cyclopropyl((3aS,9R,9aR)-7-fluoro-4-(4-(trifluoromethoxy)benzoyl)-2,3,3a,4,9,9a-hexahydro-1H-cyclopenta[b]quinolin-9-yl)amino)-4-oxobutanoic acid] | 5.1 |
